# Experimental data as given in patent US10071163B2, “Compositions and methods for selective delivery of oligonucleotide molecules to specific neuron types” (nLife Therapeutics, S.L., priority 2010, dated 2018).
# What was measured:
# [1] = test system: dopaminergic neurons of the substantia nigra pars compacta; experiment: Confocal localization of Cy3 label in substantia nigra after ICV administration; type: in vivo, mice; conditions: FIG. 17
# Description: (§1) For the infusion of siRNAs, C57BV6Ncr1 male mice were deeply anesthetized with isofluorane and placed in a mouse adaptor (Stoelting ref. 51625) attached to a stereotaxic frame with digital display readout (David Kopf Instruments, model 940). […] The needle was left in the place for 3 min to avoid upward flow of the siRNA solution.
# (§2) The mice were perfused with 4% PFA at two different time points, 1 and 3 hours post-administration of the siRNA. Brains were dissected and post-fixed in a solution of 4% PFA for 24 h at 4° C. Then brains were placed in a 30% sucrose solution for 48 h at 4° C. Brains were frozen in 2-methylbutane at −30 to −40° C. and stored at −80° C. Brains were sectioned in a cryostat Leica CM3050 S ([…]). Free-floating sections were washed and stored at 4° C. in 0.1 M PBS and 0.001% sodium azide.
# (§3) Sections were washed in PBS, blocked with 2% goat serum and 0.1% Triton and incubated with anti-TH antibody (1:800 mouse) overnight at 4° C. After washing, sections were incubated with secondary antibody Alexa Fluor 647 anti-mouse (Invitrogen) for 1 h at room temperature. Finally sections were mounted with Dako Fluorescent Mounting Medium and analyzed using a confocal spectral microscope (FV 1000 Olympus). Pictures were generated using FV 10-ASW 1.7 Viewer.
# [2] = test system: noradrenergic neurons of the locus coeruleus; experiment: Confocal localization of Cy3 label in locus coeruleus after ICV administration; type: in vivo, mice; conditions: FIG. 18
# Description: as §1, §2, §3
# [3] = target: T1, 5-HT1AR (Mus musculus, UniProt Q64264); experiment: 8-OH-DPAT-induced hypothermia after i.c.v. infusion into D3V; type: in vivo, mice; parameters: we used [^3H]8-OH-DPAT for the autoradiographic visualization of 5-HT1A receptor sites; from tissue; host or cells: mouse brain (dorsal raphe nucleus, prefrontal cortex, hippocampus): living animal or frozen 14 µm sections; conditions: 30 μg/2.5 μl/1 day into D3V; 24 h after infusion; 8-OH-DPAT 1 mg/kg i.p.; FIG. 6
# T1 sequence (Q64264 1-421): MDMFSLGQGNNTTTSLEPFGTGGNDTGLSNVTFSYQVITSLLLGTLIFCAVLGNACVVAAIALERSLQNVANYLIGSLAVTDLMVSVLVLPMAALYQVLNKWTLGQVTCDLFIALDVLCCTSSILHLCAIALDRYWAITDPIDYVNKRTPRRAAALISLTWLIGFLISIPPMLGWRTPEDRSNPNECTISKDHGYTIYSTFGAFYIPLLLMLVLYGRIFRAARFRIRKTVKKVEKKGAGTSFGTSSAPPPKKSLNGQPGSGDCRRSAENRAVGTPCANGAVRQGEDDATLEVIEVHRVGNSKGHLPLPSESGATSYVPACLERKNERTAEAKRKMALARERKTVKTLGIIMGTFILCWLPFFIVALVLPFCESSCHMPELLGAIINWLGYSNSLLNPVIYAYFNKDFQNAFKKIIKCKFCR
# Description: To test a functional measure of the pre-synaptic 5-HT1AR activity, we evaluated the hypothermia response induced by (R)-(+)-8-hydroxy-2-(di-n-propylamino)tetralin hydrobromide (8-OH-DPAT, a selective 5-HT1AR agonist) 24 hs after the infusion of a pool of naked siRNA or NLF-siRNA into dorsal raphe nucleus (DRN, 0.3 μg (0.02 nmoles)/1 μl/2 days). […] Mice were kept in individual cages in experimental room at stable temperature of 22° C. 1 h before the experiment. All experiments were carried out between 10:00 a.m. and 14:00 p.m. Body temperature was measured by inserting a lubricated probe into the rectum 5 min before the reading of the temperature while the mice was freely moving. The readings were obtained with a digital thermometer. A basal value was measured 5 min before and 15, 30, 60 and 120 min after 8-OH-DPAT administration. […] Body temperature was assessed 24 hs after the last application of 5-HT1A-targeting siRNAs into DRN in different groups of mice and in their respective controls. […]
# To evaluate the NLF-siRNA effect on the functional features of 5-HT1AR we assayed hypothermia response induced by 8-OH-DPAT and 5-HT release in the medial prefrontral cortex (mPFC). We evaluated the hypothermia response induced by 8-OH-DPAT 24 hs after the infusion of a pool of naked siRNAs or NLF-siRNA (as described in example 2) into dorsal 3rd ventricle (D3V, 30 μg/2.5 μl/1 day).
# [4] = test system: presynaptic 5-HT1A receptor; experiment: Microdialysis of 5-HT in medial prefrontal cortex after acute fluoxetine, i.c.v. siRNA; type: in vivo, mice; conditions: after systemic fluoxetine 20 mg/kg i.p.; siRNA 30 μg i.c.v.; FIG. 9
# Source text: The increase of extracellular 5-HT produced by reuptake blockade of serotonin transporter (SERT) activates 5-HT1A autoreceptors in the midbrain raphe nuclei, suppressing cell firing and terminal release, an effect that attenuates the extracellular 5-HT increase produced by reuptake blockade. Consequently, the activation of postsynaptic serotonin receptors responsible for the therapeutic effect is lower than expected. It is known that the blockade of these negative feedback mechanisms with 5-HT1A receptor antagonists (i.e pindolol) potentiates the 5-HT increase produced by SSRIs and, therefore, might serve to accelerate the clinical effects of SSRIs.
# [5] = test system: 5-HT1AR; experiment: [3H]8-OH-DPAT autoradiographic binding of 5-HT1AR protein after i.c.v. infusion; type: in vivo, mice; conditions: 30 μg/2.5 μl/1 day into D3V
# Description: To assay the density of 5-HT1AR protein we used [^3H]8-OH-DPAT for the autoradiographic visualization of 5-HT1A receptor sites. The experimental incubation conditions for [^3H]8-OH-DPAT have been previously described in the state of the art. Briefly, frozen tissue sections were thawed and dried, preincubated in 170 mM Tris-HCl pH 7.6, 4 mM CaCl2 and 0.01% ascorbic acid for 30 minutes at room temperature, and then incubated in the same buffer, including 1 nM [^3H]—OH-DPAT (234.0 Ci/mmol) and 10^−5 M pargyline for 60 minutes at room temperature. Non-specific binding was defined as that remaining in the presence of 10^−5 M 5-HT. After incubation and washing, tissue sections were dipped in distilled ice-cold water and dried rapidly under a cold air stream. Tissues were exposed to tritium-sensitive film together with plastic ^3H-standards for 60 days at 4° C.
# A set of molecules (vehicle, ns naked siRNA, ns NLF-siRNA, naked siRNA and NLF-siRNA groups), as described in example 3, were infused at 30 μg/2.5 μl/1 day (2.3 nmoles) into dorsal 3rd ventricle (D3V) at the following stereotaxic coordinates (in mm: AP: −2.0, L: 0, DV: −2.1) using similar mice strain and infusion system of example 2. […]
# [6] = target: T1, 5-HT1AR; experiment: Microdialysis of 5-HT in mPFC after 8-OH-DPAT, intranasal siRNA; conditions: intranasal 15 μg/5 μl in each nostril; 8-OH-DPAT 0.5 mg/kg i.p.; FIG. 12B
# Description: To evaluate 5-HT release, an intracerebral microdyalisis procedure was used as has been described in the state of the art. In brief, the shaft of the probe was made up of 15-mm long, 25-gauge (501 μm OD, 300 μm ID) stainless-steel tubing. The inflow and outflow tubes threaded through the 25 gauge tubing consisted of fused silica capillary tubing of 110 μm OD and 40 μM ID. The upper exposed ends of silica tubing were inserted into 7-mm long, 27 gauge (410 μm OD, 220 μM ID) stainless-steel tubing. Mice were anesthetized with sodium pentobarbital (40 mg/kg, i.p.) and positioned in a stereotaxic frame.
# Dialysate samples of 60 μl were collected every 30 min in microcentrifuge vials.
# At the completion of dialysis experiments, mice were sacrificed and the brains were immediately removed and frozen at −70° C. Coronal sections (50 μm) of the brain were cut afterwards on a cryostat and stained with cresyl violet, according to standard procedures, for localization of the perfusion site. Only data obtained from animals with histologically correct probe placements were used for subsequent statistical analysis.
# The retention time for 5-HT was 3.5-4 min and the detection limit was 2 fmol/sample.
# Mice were anesthetized with pentobarbital 40 mg/kg i.p and positioned on their backs. PBS or NLF-siRNA was slowly and gently dropped in alternating nostril with a micropipette tip in 5-ul aliquots.
# [7] = 1 hour after ICV administration, 100 μg
Substance,"Cy3 red labeling in TH-positive nigral neurons [1, 7]","Cy3 red labeling in gabaergic neurons of the substantia nigra reticulata [1, 7]",Cy3 red intracellular labeling in substantia nigra ([1]; 3 hours after ICV injection),"Cy3 red labeling in TH-positive noradrenergic neurons [2, 7]",Cy3 red intracellular labeling in locus coeruleus ([2]; 3 hours after ICV injection),hypothermia response induced by 8-OH-DPAT [3],"dyalisate serotonin concentration in medial prefrontal cortex, higher than baseline [4] [%]",knockdown effect on 5-HT1AR [5],extracellular 5-HT levels in mPFC following systemic 8-OH-DPAT [6]
"NLF-NS-siRNA-Cy3: non-sense siRNA (SEQ ID NO 69/70) conjugated to nomifensin, antisense strand carrying Cy3 (chain 1 AGUACUGCUUACGAUACGG; chain 2 CCGUAUCGUAAGCAGUACU; conjugated to nomifensin, Cy3 label, positions not given here)",can be detected within TH-positive nigral neurons,not in the gabaergic neurons,any red intracellular labeling can not be detected,can be detected mainly within TH-positive noradrenergic neurons,any red intracellular labeling can not be detected,–,–,–,–
ns NLF-siRNA: nonsense siRNA (SEQ ID NO 56/57) conjugated to a group of formula (I) and one targeting agent; control (chain 1 AGUACUGCUUACGAUACGG; chain 2 CCGUAUCGUAAGCAGUACU; further chemistry not given here),–,–,–,–,–,typical curve in the hypothermia response,~50,did not show a knockdown effect,reduced
